Measurements as given in PubChem BioAssay (NCI).
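Test compounds were applied to cells in 96-well plates for 48 hours at 5 doses. GI50: concentration for 50% inhibition of growth. TGI: total growth inhibition.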

Columns and labels:
Assay in all cases: NCI-60 cell line screen, 48 h
786-0 renal = system: 786-0 renal
CAKI-1 renal = system: CAKI-1 renal
COLO 205 colon = system: COLO 205 colon
EKVX NSCLC = system: EKVX NSCLC
HL-60(TB) leukemia = system: HL-60(TB) leukemia
HT29 colon = system: HT29 colon
MDA-MB-231 breast = system: MDA-MB-231 breast
PC-3 prostate = system: PC-3 prostate
RPMI-8226 leukemia = system: RPMI-8226 leukemia
SR leukemia = system: SR leukemia

Structure (SMILES)	TGI (786-0 renal) [µM]	TGI (CAKI-1 renal) [µM]	TGI (COLO 205 colon) [µM]	TGI (EKVX NSCLC) [µM]	TGI (HL-60(TB) leukemia) [µM]	TGI (HT29 colon) [µM]	TGI (MDA-MB-231 breast) [µM]	TGI (PC-3 prostate) [µM]	TGI (RPMI-8226 leukemia) [µM]	GI50 (786-0 renal) [µM]	GI50 (CAKI-1 renal) [µM]	GI50 (COLO 205 colon) [µM]	GI50 (EKVX NSCLC) [µM]	GI50 (HL-60(TB) leukemia) [µM]	GI50 (HT29 colon) [µM]	GI50 (MDA-MB-231 breast) [µM]	GI50 (PC-3 prostate) [µM]	GI50 (RPMI-8226 leukemia) [µM]	GI50 (SR leukemia) [µM]	TGI (SR leukemia) [µM]
CC(=O)O[C@@H]1[C@H]2O[C@H]2[C@H]2O[C@@]2(COC(=O)c2ccccc2)[C@H]1OC(C)=O	> 100	> 100	> 100	> 100	> 100	> 100	> 100	> 100	> 100	–	–	–	–	–	–	–	–	–	–	–
CC1SC(c2ccc(OCc3ccccc3)cc2)N(NC(=O)C(O)(c2ccccc2)c2ccccc2)C1=O (configuration not stated)	4.64	8.6	4.26	22.5	5.02	7.68	15.5	6.85	6.13	1.98	2.49	1.98	5.49	1.85	3.05	4.31	2.08	2.05	–	–
O=C(NC(=Nc1ccccc1)SCCSC(=Nc1ccccc1)NC(=O)c1ccccc1)c1ccccc1	> 100	> 100	> 100	> 100	–	> 100	–	–	> 100	–	–	–	–	–	–	–	–	–	–	–
C=CN(C(=O)N1CCN(c2cc3c(cc2F)c(=O)c(C(=O)O)cn3C2CC2)CC1)c1nc(-c2ccc(C)cc2)cs1	10.5	–	4.72	> 100	–	> 100	> 100	6.52	> 100	0.333	–	2.09	3.61	–	3.31	2.99	0.376	0.53	2.15	> 100
Cc1nc2ccccc2c(=O)n1/N=C(\N=Nc1ccc(Cl)cc1)c1ccc(N(C)C)cc1	> 100	> 100	> 100	> 100	–	> 100	–	–	–	–	–	–	–	–	–	–	–	–	–	–
CC1(C)OC2OC(/C=C/[N+](=O)[O-])C3OC(C)(C)OC3C2O1 (configuration not stated)	27.7	14.3	14.5	41.9	10.8	40.1	–	–	–	–	–	–	–	–	–	–	–	–	–	33.6
O=C1C(=C2C(=O)c3ccccc3[N+]2=O)N([O-])c2ccccc21	46.1	–	33	42.2	48.5	94.1	–	–	57.7	–	–	–	–	–	–	–	–	–	–	79.4
C=CC(C)(C)[C@@]12CC3C(=O)N[C@@H](Cc4ccccc4)C(=O)N3[C@@H]1N(C(C)=O)c1ccccc12 (some centres not stated)	> 100	–	> 100	> 100	62.1	> 100	–	–	> 100	–	–	–	–	–	–	–	–	–	–	> 100
Cc1c(Cl)ccc2[s+]snc12	36.2	> 100	> 100	> 100	43.7	> 100	–	–	–	–	–	–	–	–	–	–	–	–	–	> 100
CC(=O)NNc1nc(C)c(C(=O)NNC(=O)C(=O)Nc2ccc(C)cc2[N+](=O)[O-])s1	> 100	> 100	> 100	> 100	> 100	> 100	–	–	> 100	–	–	–	–	–	–	–	–	–	–	> 100
COc1cc(CC2c3cc(OC)c(OC)cc3CCN2C)c(C(=O)O)cc1OC (configuration not stated)	> 100	–	> 100	> 100	> 100	> 100	–	–	> 100	–	–	–	–	–	–	–	–	–	–	> 100
